Test results as given in patent US10604535B2, “Compounds, compositions and methods” (Denali Therapeutics Inc., priority 2016, dated 2020).

Assays:
GST-hRIPK1 (8-327) = GST-hRIPK1 (8-327) (Homo sapiens (Human), UniProt Q13546); assay: Fluorescent Polarization Binding (FP Binding) assay
[1] = test system: FADD-deficient Jurkat cells; assay: Cellular necroptosis assay (human TNFα-induced necrosis, CellTiter-Glo); assay type: cell-based; details: Homo sapiens, Jurkat, 48 h, TNFα 10 ng/mL, read-out: Cell IC50

Sequence of GST-hRIPK1 (8-327) (Q13546 8-327): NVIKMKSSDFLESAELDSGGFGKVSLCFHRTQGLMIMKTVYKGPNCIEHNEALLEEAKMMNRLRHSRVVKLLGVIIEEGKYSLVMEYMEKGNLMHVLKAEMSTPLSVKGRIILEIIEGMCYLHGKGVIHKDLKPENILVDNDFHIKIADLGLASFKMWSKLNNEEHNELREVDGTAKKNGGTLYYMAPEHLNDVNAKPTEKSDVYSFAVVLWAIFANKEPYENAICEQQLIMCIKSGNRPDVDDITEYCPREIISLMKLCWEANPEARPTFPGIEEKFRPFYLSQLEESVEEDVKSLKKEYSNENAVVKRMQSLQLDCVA

| SMILES | IC50 (GST-hRIPK1 (8-327)) | IC50 [1] |
| --- | --- | --- |
| O=C(NC1COc2cccnc2-n2ccnc21)c1nn(Cc2ccccc2)cc1F (stereo in doubt) [Example 154B, (S)-1-benzyl-N-(6,7-dihydroimidazo[1,2-d]pyrido[3,2-b][1,4]oxazepin-7-yl)-4-fluoro-1H-pyrazole-3-carboxamide] | 0.0001 to 1 µM | 0.0001 to 1 µM |
| C=C1C[C@H](NC(=O)c2cc(Cc3ccccc3)on2)C(=O)N(C)c2ccccc21 [Example 3, (S)-5-benzyl-N-(1-methyl-5-methylene-2-oxo-2,3,4,5-tetrahydro-1H-benzo[b]azepin-3-yl)isoxazole-3-carboxamide] | 0.0001 to 1 µM | 0.0001 to 1 µM |
| Cc1c(Cl)c(C(=O)N[C@H]2COc3ccccc3N(C)C2=O)nn1Cc1ccccc1 [Example 4, (S)-1-benzyl-4-chloro-5-methyl-N-(5-methyl-4-oxo-2,3,4,5-tetrahydrobenzo[b][1,4]oxazepin-3-yl)-1H-pyrazole-3-carboxamide] | 0.0001 to 1 µM | 0.0001 to 1 µM |
| Cc1c(F)c(C(=O)N[C@H]2COc3ccccc3N(C)C2=O)nn1Cc1ccccc1 [Example 6, (S)-1-benzyl-4-fluoro-5-methyl-N-(5-methyl-4-oxo-2,3,4,5-tetrahydrobenzo[b][1,4]oxazepin-3-yl)-1H-pyrazole-3-carboxamide] | 0.0001 to 1 µM | 0.0001 to 1 µM |
| CN1C(=O)[C@@H](NC(=O)c2cc(Cc3ccccc3)on2)C2CC2c2ccccc21 (stereo partly drawn) [Example 7, 5-benzyl-N-((2S)-4-methyl-3-oxo-1,1a,2,3,4,8b-hexahydrobenzo[b]cyclopropa[d]azepin-2-yl)isoxazole-3-carboxamide] | 0.0001 to 1 µM | 0.0001 to 1 µM |
| CN1C(=O)C(NC(=O)c2nnc(Cc3ccccc3)[nH]2)CC(F)(F)c2ccccc21 (centres unmarked) [Example 10, 5-benzyl-N-(5,5-difluoro-1-methyl-2-oxo-2,3,4,5-tetrahydro-1H-benzo[b]azepin-3-yl)-4H-1,2,4-triazole-3-carboxamide] | 0.0001 to 1 µM | 0.0001 to 1 µM |
| O=C(N[C@H]1CCc2ccccc2-n2ccnc21)c1cc(Cc2ccccc2)on1 [Example 30, (S)-5-benzyl-N-(5,6-dihydro-4H-benzo[f]imidazo[1,2-a]azepin-4-yl)isoxazole-3-carboxamide] | 0.0001 to 1 µM | 0.0001 to 1 µM |
| CN1C(=O)[C@@H](NC(=O)c2nnc(Cc3ccccc3)[nH]2)COc2c(Cl)cccc21 [Example 32, (S)-5-benzyl-N-(9-chloro-5-methyl-4-oxo-2,3,4,5-tetrahydrobenzo[b][1,4]oxazepin-3-yl)-4H-1,2,4-triazole-3-carboxamide] | 0.0001 to 1 µM | 0.0001 to 1 µM |
| CN1C(=O)[C@@H](NC(=O)c2nnc(C3(c4ccccc4)CC3)[nH]2)COc2ccccc21 [Example 35, (S)—N-(5-methyl-4-oxo-2,3,4,5-tetrahydrobenzo[b][1,4]oxazepin-3-yl)-5-(1-phenylcyclopropyl)-4H-1,2,4-triazole-3-carboxamide] | 0.0001 to 1 µM | 0.0001 to 1 µM |
| Cc1nc2c(s1)CC[C@H](NC(=O)c1nnc(Cc3ccccc3)[nH]1)C(=O)N2C [Example 38A, (S)-5-benzyl-N-(2,4-dimethyl-5-oxo-5,6,7,8-tetrahydro-4H-thiazolo[4,5-b]azepin-6-yl)-4H-1,2,4-triazole-3-carboxamide] | 0.0001 to 1 µM | 0.0001 to 1 µM |
| CN1C(=O)[C@@H](NC(=O)c2nnc(Cc3ccccc3)[nH]2)COc2cnccc21 [Example 41, (S)-5-benzyl-N-(1-methyl-2-oxo-1,2,3,4-tetrahydropyrido[3,4-b][1,4]oxazepin-3-yl)-4H-1,2,4-triazole-3-carboxamide] | 0.0001 to 1 µM | 0.0001 to 1 µM |
| CN1C(=O)[C@@H](NC(=O)c2nnc(Cc3ccccc3)[nH]2)CC2(CC2)c2ccccc21 [Example 44, (S)-5-benzyl-N-(1-methyl-2-oxo-1,2,3,4-tetrahydrospiro[benzo[b]azepine-5,1′-cyclopropan]-3-yl)-4H-1,2,4-triazole-3-carboxamide] | 0.0001 to 1 µM | 0.0001 to 1 µM |
| Cc1c(F)c(C(=O)N[C@H]2COc3ccccc3NC2=O)nn1Cc1ccccc1 [Example 45, (S)-1-benzyl-4-fluoro-5-methyl-N-(4-oxo-2,3,4,5-tetrahydrobenzo[b][1,4]oxazepin-3-yl)-1H-pyrazole-3-carboxamide] | 0.0001 to 1 µM | 0.0001 to 1 µM |
| CN1C(=O)[C@@H](NC(=O)c2nnc(C3CCc4ccccc43)[nH]2)COc2ccccc21 (stereo partly drawn) [Example 51, 5-(2,3-dihydro-1H-inden-1-yl)-N—((S)-5-methyl-4-oxo-2,3,4,5-tetrahydrobenzo[b][1,4]oxazepin-3-yl)-4H-1,2,4-triazole-3-carboxamide] | 0.0001 to 1 µM | 0.0001 to 1 µM |
| CN1C(=O)[C@@H](NC(=O)c2nnc([C@@H]3CCc4ccccc43)[nH]2)COc2cccnc21 [Example 54A, 5-((R)-2,3-dihydro-1H-inden-1-yl)-N—((S)-5-methyl-4-oxo-2,3,4,5-tetrahydropyrido[3,2-b][1,4]oxazepin-3-yl)-4H-1,2,4-triazole-3-carboxamide] | 0.0001 to 1 µM | 0.0001 to 1 µM |
| CN1C(=O)[C@@H](NC(=O)c2nn(Cc3ccccn3)cc2F)COc2ccccc21 [Example 55, (S)-4-fluoro-N-(5-methyl-4-oxo-2,3,4,5-tetrahydrobenzo[b][1,4]oxazepin-3-yl)-1-(pyridin-2-ylmethyl)-1H-pyrazole-3-carboxamide] | 0.0001 to 1 µM | 0.0001 to 1 µM |
| CN1C(=O)[C@@H](NC(=O)c2nnc(Cc3ccccc3)[nH]2)COc2c(C#N)cccc21 [Example 56, (S)-5-benzyl-N-(9-cyano-5-methyl-4-oxo-2,3,4,5-tetrahydrobenzo[b][1,4]oxazepin-3-yl)-2H-1,2,4-triazole-3-carboxamide] | 0.0001 to 1 µM | 0.0001 to 1 µM |
| O=C(N[C@H]1COc2cccnc2NC1=O)c1nn(Cc2ccccc2)cc1F [Example 57, (S)-1-benzyl-4-fluoro-N-(4-oxo-2,3,4,5-tetrahydropyrido[3,2-b][1,4]oxazepin-3-yl)-1H-pyrazole-3-carboxamide] | 0.0001 to 1 µM | 0.0001 to 1 µM |
| CN1C(=O)[C@@H](NC(=O)c2nnc(C3(c4ccccc4)CC3)s2)COc2ccccc21 [Example 58, (S)—N-(5-methyl-4-oxo-2,3,4,5-tetrahydrobenzo[b][1,4]oxazepin-3-yl)-5-(1-phenylcyclopropyl)-1,3,4-thiadiazole-2-carboxamide] | 0.0001 to 1 µM | 0.0001 to 1 µM |
| C[C@H]1Oc2cccnc2NC(=O)[C@H]1NC(=O)c1nnc(Cc2ccccc2)[nH]1 [Example 96, 5-benzyl-N-((2R,3S)-2-methyl-4-oxo-2,3,4,5-tetrahydropyrido[3,2-b][1,4]oxazepin-3-yl)-4H-1,2,4-triazole-3-carboxamide] | 0.0001 to 1 µM | 0.0001 to 1 µM |
| CN1C(=O)[C@@H](NC(=O)c2ncc(C3(c4ccccc4)CC3)[nH]2)COc2cccnc21 [Example 99, (S)—N-(5-methyl-4-oxo-2,3,4,5-tetrahydropyrido[3,2-b][1,4]oxazepin-3-yl)-5-(1-phenylcyclopropyl)-1H-imidazole-2-carboxamide] | 1 to 10 µM | 0.0001 to 1 µM |
| CN1C(=O)[C@@H](NC(=O)c2cc(Oc3ccccc3F)ccn2)[C@H]2C[C@H]2c2cccnc21 [Example 100A, 4-(2-fluorophenoxy)-N-((1aS,2S,8bR)-4-methyl-3-oxo-1,1a,2,3,4,8b-hexahydrocyclopropa[d]pyrido[2,3-b]azepin-2-yl)picolinamide] | 0.0001 to 1 µM | 0.0001 to 1 µM |
| CN1C(=O)[C@@H](NC(=O)c2nnc(Cc3ccccc3)[nH]2)CCc2c1cnn2C [Example 101B, (S)-5-benzyl-N-(1,4-dimethyl-5-oxo-1,4,5,6,7,8-hexahydropyrazolo[4,3-b]azepin-6-yl)-4H-1,2,4-triazole-3-carboxamide] | 0.0001 to 1 µM | 0.0001 to 1 µM |
| O=C(N[C@H]1CC2(CC2)c2cc(F)cc(F)c2NC1=O)c1nnc(Cc2ccccc2)[nH]1 [Example 103B, (S)-5-benzyl-N-(7,9-difluoro-2-oxo-1,2,3,4-tetrahydrospiro[benzo[b]azepine-5,1′-cyclopropan]-3-yl)-4H-1,2,4-triazole-3-carboxamide] | 0.0001 to 1 µM | 0.0001 to 1 µM |
| CN1C(=O)[C@@H](NC(=O)c2nnc(Cc3ccccc3)[nH]2)CCc2nn(C)cc21 [Example 105A, (S)-5-benzyl-N-(2,4-dimethyl-5-oxo-2,4,5,6,7,8-hexahydropyrazolo[4,3-b]azepin-6-yl)-4H-1,2,4-triazole-3-carboxamide] | 0.0001 to 1 µM | 0.0001 to 1 µM |
| CN1C(=O)[C@@H](NC(=O)c2nn(Cc3ccccc3)cc2F)CCc2nn(C)cc21 [Example 109A, (S)-1-benzyl-N-(2,4-dimethyl-5-oxo-2,4,5,6,7,8-hexahydropyrazolo[4,3-b]azepin-6-yl)-4-fluoro-1H-pyrazole-3-carboxamide] | 0.0001 to 1 µM | 0.0001 to 1 µM |
| O=C(N[C@@H]1C(=O)Nc2ncccc2[C@@H]2C[C@H]12)c1nnc(Cc2ccccc2)[nH]1 [Example 110B, 5-benzyl-N-((1aS,2S,8bR)-3-oxo-1,1a,2,3,4,8b-hexahydrocyclopropa[d]pyrido[2,3-b]azepin-2-yl)-4H-1H-1,2,4-triazole-3-carboxamide] | 0.0001 to 1 µM | 0.0001 to 1 µM |
| CN1C(=O)[C@@H](NC(=O)c2nn(Cc3ccccc3)cc2F)CCc2cccnc21 [Example 111B, (S)-1-benzyl-4-fluoro-N-(9-methyl-8-oxo-6,7,8,9-tetrahydro-5H-pyrido[2,3-b]azepin-7-yl)-1H-pyrazole-3-carboxamide] | 0.0001 to 1 µM | 0.0001 to 1 µM |
| C[C@H]1Oc2cccnc2N(C)C(=O)[C@H]1NC(=O)c1cc(Cc2ccccc2)on1 [Example 112, 5-benzyl-N-((2R,3S)-2,5-dimethyl-4-oxo-2,3,4,5-tetrahydropyrido[3,2-b][1,4]oxazepin-3-yl)isoxazole-3-carboxamide] | 0.0001 to 1 µM | 0.0001 to 1 µM |
| CN1C(=O)[C@@H](NC(=O)c2nnc(Cc3ccccc3)o2)CCc2ccccc21 [Example 225, (S)-5-benzyl-N-(1-methyl-2-oxo-2,3,4,5-tetrahydro-1H-benzo[b]azepin-3-yl)-1,3,4-oxadiazole-2-carboxamide] | – | 0.0001 to 1 µM |
